# From US5500427A, “Cyclic compounds and their use” (Takeda Chemical Industries, Ltd., priority 1992, dated 1996)
# Experiments:
# angiotensin II receptor = biological target: T1, angiotensin II receptor (Bos taurus, UniProt P25104); assay: Inhibitory Effect of Binding of Angiotensin-II to Angiotensin II Receptor (radioreceptor assay); settings: 125I-angiotensin II, bovine adrenal cortex membrane, room temperature, one hour; for inhibition at 1 µM: 10^-6 M; for inhibition at 0.1 µM: 10^-7 M
# T1 construct: An A-II receptor membrane fraction was prepared from bovine adrenal cortex; from tissue; host or cells: bovine adrenal cortex membrane fraction
# T1 sequence (P25104 1-359): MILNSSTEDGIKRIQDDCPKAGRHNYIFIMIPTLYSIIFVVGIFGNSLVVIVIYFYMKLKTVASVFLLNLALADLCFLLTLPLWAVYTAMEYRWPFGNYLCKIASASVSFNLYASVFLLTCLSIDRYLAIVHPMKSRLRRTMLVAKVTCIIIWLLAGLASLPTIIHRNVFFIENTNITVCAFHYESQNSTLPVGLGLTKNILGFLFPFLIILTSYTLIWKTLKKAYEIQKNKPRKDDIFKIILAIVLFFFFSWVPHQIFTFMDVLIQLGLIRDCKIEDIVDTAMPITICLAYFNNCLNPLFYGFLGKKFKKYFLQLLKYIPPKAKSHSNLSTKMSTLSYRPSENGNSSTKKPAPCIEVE
# Experimental: Inhibitory Effect of Binding of Angiotensin-II to Angiotensin II Receptor
# An experiment of inhibition on the binding of angiotensin II (A-II) receptor was performed by modified the method of Douglas et al. [Endocrinology, 102, 685-696 (1978)]. An A-II receptor membrane fraction was prepared from bovine adrenal cortex.
# The compound of the present invention (10^-6 M or 10^-7 M) and ^125 I-angiotensin II (^125 I-AII) (2.44 KBq/50 microliter) were added to the receptor membrane fraction, and the mixture was incubated at room temperature for one hour. The receptor-bound and free I-AII were separated through a filter (Whatman GF/B filter), and the radioactivity of ^125 I-AII bound to the receptor was determined.
# [1] = tested on: AII-induced Pressor Response; assay: Inhibitory Effect of the Compound of the Present Invention on AII-induced Pressor Response; assay type: in vivo; settings: A-II 100 ng/kg i.v., male Jcl:SD rats
# Text: Inhibitory Effect of the Compound of the Present Invention on AII-induced Pressor Response
# Jcl:SD rats (9 week old, male) were used. On the previous day of the experiment, rats were applied with cannulation into the femoral artery and vein under anesthesia with pentobarbital Na. These animals were fasted but allowed to access freely to drinking water until the experiment was started. Just on the day of conducting the experiment, the artery cannula was connected with a blood-pressure transducer, and the average blood pressure was recorded by polygraph. Before administration of the drug, the pressor action due to intravenous administration of A-II (100 ng/kg) as the control was determined. The drugs were orally administered, then, at each point of the determination, A-II was administered intravenously, and the pressor action was similarly determined. By comparing the pressor action before and after administration of the drug, the percent inhibition by the drug was evaluated.
Compound,inhibition at 1 µM (angiotensin II receptor) [%],inhibition at 0.1 µM (angiotensin II receptor) [%],Pressor Response [p.o.] (percent inhibition of A-II pressor action) ([1]; 1 mg/kg p.o.),Pressor Response [p.o.] (percent inhibition of A-II pressor action) ([1]; 0.3 mg/kg p.o.)
"CCCCN(Cc1ccc(-c2ccccc2-c2nc(=O)o[nH]2)cc1)c1ncccc1C(=O)O [Example 6, 2-[N-butyl-N-[2'-(2,5-dihydro-5-oxo-1,2,4-oxadiazol-3-yl)biphenyl-4-yl]methylamino]pyridine-3-carboxylic acid]",55,16,+++ (+++ ≥ 70%),–
CCCN(Cc1ccc(-c2ccccc2-c2nsc(=O)[nH]2)cc1)c1ncccc1C(=O)O [Example 4],61,20,+++ (+++ ≥ 70%),–
CCCN(Cc1ccc(-c2ccccc2-c2noc(=O)[nH]2)cc1)c1ncccc1C(=O)O [Example 2],52,17,+++ (+++ ≥ 70%),+++ (+++ ≥ 70%)
